The values below come from PubChem BioAssay AID328 (DTP/NCI, 2004).

The test deals with BDF1 mice, P388 leukemia ip, median survival T/C. As to the kind of experiment: NCI In Vivo Anticancer Drug Screen. Data for tumor model P388 Leukemia (intraperitoneal) in B6D2F1 (BDF1) mice. To be noted: endpoint: median survival time, higher = longer survival. In short, it runs like this: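 Mice carrying the transplantable tumour receive compound or vehicle. Survival is followed in each arm, and the treated measure is divided by the vehicle measure.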

[1] abbreviates: dose: 50.0 mg/kg/injection, schedule: Q01DX009 (ip), vehicle: saline with Tween-80.
The mark [2] stands for this setting: dose: 100.0 mg/kg/injection, schedule: Q01DX009 (ip), vehicle: saline with Tween-80.
[3] abbreviates: dose: 100.0 mg/kg/injection, schedule: Q04DX003 (ip), vehicle: saline with Tween-80.
The mark [4] stands for this setting: dose: 12.5 mg/kg/injection, schedule: Q01DX009 (ip), vehicle: saline.
[5] abbreviates: dose: 100.0 mg/kg/injection, schedule: Q01DX009 (ip), vehicle: other.
Setting [6] is: dose: 200.0 mg/kg/injection, schedule: Q01DX009 (ip), vehicle: other.
Setting [7] is: dose: 150.0 mg/kg/injection, schedule: Q04DX003 (ip), vehicle: saline with Tween-80.
[8] abbreviates: dose: 200.0 mg/kg/injection, schedule: Q01DX009 (ip), vehicle: saline with Tween-80.
Setting [9] is: dose: 200.0 mg/kg/injection, schedule: Q04DX003 (ip), vehicle: saline with Tween-80.
Setting [10] is: dose: 400.0 mg/kg/injection, schedule: Q01DX009 (ip), vehicle: saline with Tween-80.
Setting [11] is: dose: 400.0 mg/kg/injection, schedule: Q04DX003 (ip), vehicle: saline with Tween-80.
The mark [12] stands for this setting: dose: 25.0 mg/kg/injection, schedule: Q01DX009 (ip), vehicle: water.
Where [13] appears, read: dose: 50.0 mg/kg/injection, schedule: Q01DX009 (ip), vehicle: water.

Molecules are shown by their SMILES. Where “and” joins values, the source holds several entries; their conditions need not be identical. Equal values may be shown once. Inconclusive results and toxic doses are left out.

As to `CCCCCCCCCCCCOB(OCCCCCCCCCCCC)OCCCCCCCCCCCC`, the T/C (dose: 25.0 mg/kg/injection, schedule: Q01DX009 (ip), vehicle: saline with Tween-80) is 100 % of control; the T/C (dose: 25.0 mg/kg/injection, schedule: Q04DX003 (ip), vehicle: saline with Tween-80) is 91 % of control; the T/C under setting [1] was 108 % of control; the T/C (dose: 50.0 mg/kg/injection, schedule: Q04DX003 (ip), vehicle: saline with Tween-80) is 95 % of control; the T/C under setting [2] is 100 % of control; the T/C under setting [3] is 116 % of control.

On to `CCCCCCCCCCCC[N+](C)(C)CCC[N+](C)(C)CCCCCCCCCCCC`, for which the T/C was 109 % of control (dose: 6.25 mg/kg/injection, schedule: Q01DX009 (ip), vehicle: saline) and 116 % of control under setting [4].

For the compound `CC(=O)/C=C/c1ccco1`, the T/C was 91 % of control (dose: 25.0 mg/kg/injection, schedule: Q01DX009 (ip), vehicle: DMSO); 107 % of control (dose: 25.0 mg/kg/injection, schedule: Q04DX003 (ip), vehicle: DMSO); 91 % of control (dose: 50.0 mg/kg/injection, schedule: Q01DX009 (ip), vehicle: DMSO); 92 % of control (dose: 50.0 mg/kg/injection, schedule: Q04DX003 (ip), vehicle: DMSO).

As to `Cc1ccc(C(=O)CC(O)(C(F)(F)F)C(F)(F)F)cc1`, the T/C is 100 % of control under setting [5]; 95 % of control under setting [6]; 121 % of control (dose: 400.0 mg/kg/injection, schedule: Q01DX009 (ip), vehicle: other).

Consider `C[Si](C)(C)C1([Si](C)(C)C)CO1`, for which the T/C is 108 % of control (dose: 100.0 mg/kg/injection, schedule: Q04DX003 (ip), vehicle: saline); 109 % of control (dose: 200.0 mg/kg/injection, schedule: Q04DX003 (ip), vehicle: saline); 108 % of control (dose: 400.0 mg/kg/injection, schedule: Q04DX003 (ip), vehicle: saline).

Consider `C/C(=N/N=C(N)N)c1ccc(NC(=O)Nc2ccc(/C(C)=N/N=C(N)N)cc2)cc1`, for which the T/C is, setting by setting: (dose: 66.0 mg/kg/injection, schedule: Q04DX003 (ip), vehicle: saline with Tween-80) 154 % of control; under setting [2], 90 % of control; under setting [3], 150 % of control; under setting [7], 159 % of control.

As for `CCN(CC)CCCNc1ncnc2onc(-c3ccccc3)c12`, the T/C is, setting by setting: (dose: 50.0 mg/kg/injection, schedule: Q01DX009 (ip), vehicle: other) 107 % of control; under setting [5], 105 % of control; under setting [6], 96 % of control.

In the case of `CC(=O)Nc1ccc(N=Nc2c(C)nn(C(=N)N)c2C)cc1`, the T/C was 97 % of control (dose: 25.0 mg/kg/injection, schedule: Q01DX009 (ip), vehicle: saline) and 97 % of control (dose: 50.0 mg/kg/injection, schedule: Q01DX009 (ip), vehicle: saline).

On to `O=C(O)c1cc(C(=O)O)cc(S(=O)(=O)F)c1`, for which the T/C was 104 % of control (dose: 75.0 mg/kg/injection, schedule: Q04DX003 (ip), vehicle: saline with Tween-80); 105 % of control under setting [2]; 108 % of control under setting [7]; 95 % of control under setting [8]; 104 % of control (dose: 300.0 mg/kg/injection, schedule: Q04DX003 (ip), vehicle: saline with Tween-80).

`O=C(NC1CCCCC1)O/N=C/c1ccccn1`: the T/C was 87 % of control (dose: 100.0 mg/kg/injection, schedule: Q01DX001 (ip), vehicle: other) and 91 % of control (dose: 400.0 mg/kg/injection, schedule: Q01DX001 (ip), vehicle: other).

For `COc1ccc(C2(C(=O)O)CCCC2)cc1`, the T/C is 95 % of control under setting [2]; 104 % of control under setting [3]; 91 % of control under setting [8]; 100 % of control under setting [9]; 91 % of control under setting [10]; 112 % of control under setting [11].

For `O=S1(=O)CCNNCC1`, the T/C is 110 % of control (dose: 25.0 mg/kg/injection, schedule: Q01DX001 (ip), vehicle: saline); 105 % of control (dose: 50.0 mg/kg/injection, schedule: Q01DX001 (ip), vehicle: saline); 120 % of control (dose: 100.0 mg/kg/injection, schedule: Q01DX001 (ip), vehicle: saline); 110 % of control (dose: 200.0 mg/kg/injection, schedule: Q01DX001 (ip), vehicle: saline).

On to `Cc1ccc([N+](=O)[O-])cc1NC(=O)Oc1ccccc1`, for which the T/C reads like this: (dose: 100.0 mg/kg/injection, schedule: Q04DX003 (ip), vehicle: other) 92 % of control; (dose: 200.0 mg/kg/injection, schedule: Q04DX003 (ip), vehicle: other) 96 % of control; (dose: 400.0 mg/kg/injection, schedule: Q04DX003 (ip), vehicle: other) 96 % of control.

In the case of `C[C@H]1C(=O)O[C@@H]2CCN3CC=C(COC(=O)[C@](C)(O)[C@@]1(C)O)[C@H]23`, the T/C by setting is: (dose: 3.13 mg/kg/injection, schedule: Q01DX010 (ip), vehicle: saline) 100 % of control; (dose: 6.2 mg/kg/injection, schedule: Q01DX009 (ip), vehicle: saline) 111 % of control; (dose: 6.25 mg/kg/injection, schedule: Q01DX010 (ip), vehicle: saline) 100 % of control; under setting [4], 122 % of control; (dose: 12.5 mg/kg/injection, schedule: Q01DX009 (ip), vehicle: water) 109 % of control; (dose: 12.5 mg/kg/injection, schedule: Q01DX010 (ip), vehicle: saline) 104 % of control. The T/C runs as follows: under setting [12], 86 % of control; (dose: 25.0 mg/kg/injection, schedule: Q01DX010 (ip), vehicle: saline) 104 % of control; under setting [13], 118 % of control; (dose: 75.0 mg/kg/injection, schedule: Q01DX009 (ip), vehicle: water) 104 % of control.

`CC(=O)Nc1ccc2cnn(C(C)=O)c2c1`: the T/C under setting [12] was 89 % of control; the T/C under setting [13] is 86 % of control; the T/C (dose: 50.0 mg/kg/injection, schedule: Q04DX003 (ip), vehicle: water) was 113 % of control; the T/C (dose: 100.0 mg/kg/injection, schedule: Q01DX009 (ip), vehicle: water) is 88 % of control; the T/C (dose: 100.0 mg/kg/injection, schedule: Q04DX003 (ip), vehicle: water) is 111 % of control; the T/C (dose: 200.0 mg/kg/injection, schedule: Q01DX009 (ip), vehicle: water) is 92 % of control. Further, the T/C is 97 % of control (dose: 200.0 mg/kg/injection, schedule: Q04DX003 (ip), vehicle: water); 91 % of control (dose: 400.0 mg/kg/injection, schedule: Q01DX009 (ip), vehicle: water); 97 % of control (dose: 400.0 mg/kg/injection, schedule: Q04DX003 (ip), vehicle: water).

For `Cc1cc(N(C)C)c2ccc3ccccc3c2n1`, the T/C is 93 % of control under setting [1], 95 % of control under setting [2] and 101 % of control under setting [8].

Take `C=CCOCCN1CCN(CCCN2c3ccccc3Sc3ccc(C(F)(F)F)cc32)CC1`: the T/C reads like this: (dose: 5.0 mg/kg/injection, schedule: Q04DX003 (ip), vehicle: saline) 104 % of control; (dose: 10.0 mg/kg/injection, schedule: Q04DX003 (ip), vehicle: saline) 121 % of control.

With `COc1cccc2c1C(=O)c1c(O)c3c(c(O)c1C2=O)C[C@@](O)(/C(C)=N/NC(=O)c1ccc(Cl)cc1)C[C@@H]3OC1CC(N)C(O)C(C)O1` (some centres not stated), the T/C by setting is: (dose: 0.5 mg/kg/injection, schedule: Q01DX009 (ip), vehicle: water) 110 % of control; (dose: 1.0 mg/kg/injection, schedule: Q01DX009 (ip), vehicle: water) 107 % of control and 214 % of control; (dose: 2.0 mg/kg/injection, schedule: Q01DX009 (ip), vehicle: water) 303 % of control; (dose: 4.0 mg/kg/injection, schedule: Q01DX009 (ip), vehicle: water) 238 % of control and 115 % of control; (dose: 8.0 mg/kg/injection, schedule: Q01DX009 (ip), vehicle: water) 164 % of control.

For the compound `COc1ccc(-c2c(C)c(C)[nH]c(=O)c2C(=O)O)c(OCc2ccccc2)c1OC`, the T/C is, setting by setting: under setting [2], 99 % of control; under setting [3], 110 % of control; under setting [8], 105 % of control; under setting [9], 103 % of control; under setting [10], 103 % of control; under setting [11], 117 % of control.
